Consider three compounds from paper PMC6562422, “Huzhangoside A Suppresses Tumor Growth through Inhibition of Pyruvate Dehydrogenase Kinase Activity” (Cancers, 2019).

For one data set, the system named is HSC-4. Details: method as in PMID 19952458. To be noted: read-out: IC50 against human cancer cell line; cited from earlier work.
Data set [1] can be described thus: Blood biochemistry of tumor-bearing mice. The class given is in vivo, C57BL/6 mice. To be noted: serum; for Creatinine: below limit of detection; for BUN: mean ± SD (control 8.6 ± 0.8); for ALT: mean ± SD (control 14.8 ± 2.5); for AST: mean ± SD (control 79.8 ± 35.3). On the procedure: The blood sera were collected from the retro-orbital plexus of tumor-bearing mice treated with Hu.A. The levels of AST, ALT, BUN, and creatinine were analyzed by a commercial service provided by Green Cross Co. (Yongin, Korea).

A further data set concerns MDA-MB-231 cells. As to the kind of experiment: MTT cell viability assay. The note with it: 3 μM, 24 h. In kind it is cell-based, human. (In general: Formazan colour is commonly taken as a measure of viable cells.)
Data set [2] concerns the target T1, PDHK1 (Homo sapiens, UniProt Q15118).
T1 construct: made in house; host or cells: Escherichia coli BL21(DE3)
Briefly: ATP-binding assay. To be noted: His-tagged PDHK1 on Ni-NTA beads, 37 °C. On the procedure:
The cloned PDHK1 was expressed in Escherichia coli BL21(DE3). The overexpressed protein was purified using affinity chromatography and gel filtration chromatography. The purified His-tagged PDHK1 was bound to Ni-NTA beads in binding buffer (20 mM HEPES-K^+ (pH 7.2) and 0.05% BSA) at 4 °C. The Ni-NTA beads with bound His-tagged PDHK1 were washed with the binding buffer followed by incubation with [α-^32P]ATP, ATP, and Hu.A at 37 °C. The beads were then washed with wash buffer (PBS). The bead-bound PDHK1 protein was achieved by 250 mM imidazole, and its radioactivity was detected by liquid scintillation counting.

The subject of data set [3] is DLD-1 cells. As to the kind of experiment: Lactate production assay. In kind it is cell-based, human. On the procedure: Lactate in the cell culture medium was analyzed by a lactate fluorometric assay kit (Biovision, Milpitas, CA, USA) and measured using the Spectramax M2 microplate reader at 570 nm.
Another data set addresses T2, GST-PDHK1 (Homo sapiens, UniProt Q15118).
T2 construct: expressed in transfected cells; host or cells: HEK293T
As to the kind of experiment: In vitro PDHK kinase assay (GST-PDHK1, recombinant PDHA, western blot). In kind it is biochemical. The note with it: phosphorylation of recombinant PDHA by western blot. On the procedure:
The kinase assay of PDHK1 was carried out as described previously. Briefly, HEK293T cells, transfected with GST-PDHK1 construct, were lysed, and the lysate was incubated with Glutathione Sepharose 4B beads (Amersham Biosciences, Uppsala, Sweden). The beads were washed and recombinant PDHA was added and incubated for 5 min at 30 °C in the kinase buffer. The phosphorylation of PDHA was analyzed by western blot analysis.
On the technique in general: In western blotting, separated proteins are transferred to a membrane and probed.

The test system of data set [4] is DLD-1 cells. Briefly: MTT cell viability assay. The class given is cell-based, human. On the procedure:
(§1) The cytotoxic effect of Hu.A was confirmed using a MTT assay. Briefly, DLD-1 cells (10^5 cells per well) were seeded in a 24-well plate and incubated overnight. The cells were then shifted to serum-free media and treated with Hu.A. MTT solution (2 mg/mL) was then added to the cells. The absorbance of formazan crystals formed were measured using a Spectramax M2 microplate reader (Molecular Devices, Sunnyvale, CA, USA) at 540 nm.

Another data set relates to HT-29 cells. As to the kind of experiment: MTT cell viability assay. In kind it is cell-based, human. To be noted: 3 μM, 24 h.
The next data set relates to Hep3B cells. Briefly: MTT cell viability assay. The class given is cell-based, human. To be noted: 3 μM, 24 h.
The next data set deals with PDHK1-4. As to the kind of experiment: PDHK1-4 protein expression (western blot) in DLD-1 cells. To be noted: serum-free medium, 4 h. The class given is cell-based, human. On the procedure: Figure 2 Hu.A reduced the PDHK1 activity and promoted oxidative phosphorylation (OXPHOS) in DLD-1 cells. (A) In vitro PDHK1 kinase assay was performed. (B, C) DLD-1 cells were treated with Hu.A in serum-free medium for 4 h. The levels of phosphorylated pyruvate dehydrogenase E1α subunit (PDHA) (B), and PDHK1-4 (C) were analyzed using western blot assay. PDHA (B) and GAPDH (C) were used as loading controls. (D) The intensity of bands (PDHK1-4/GAPDH) from three independent experiments was measured and indicated by mean ± SD. (E) DLD-1 cells were treated with Hu.A in serum-free medium for 6 h. O2 consumption rate was measured by using commercially available Oxygen Consumption Rate Assay Kit. (F) Lactate production was measured by lactate fluorometric assay kit (right panel). The data are shown as mean ± SD, respectively. **, p < 0.01 compared with control.
Western blotting assay was carried out as described previously. Briefly, equal amounts (20 μg) of the cell lysates were separated by sodium dodecyl sulfate–polyacrylamide gel electrophoresis and were transferred onto the nitrocellulose membrane (Hybond ECL; GE Healthcare). The membrane was incubated with specific antibodies. The bands of the target proteins were detected using ECL Plus reagent and ImageQuant LAS 4000 (GE Healthcare, Menlo Park, CA, USA).

The test system of another data set is A549. On the set-up: method as in PMID 19952458. To be noted: read-out: IC50 against human cancer cell line; cited from earlier work.
The next data set concerns the target T3, PDHK and PDC E2 subunit (Homo sapiens, UniProt Q15118).
T3 construct: expressed in transfected cells; host or cells: HEK293T (GST-PDHK1 transfected; E2 endogenous from HEK293T whole cell lysate)
As to the kind of experiment: PDC subunits and PDHK binding assay. To be noted: 500 μM Hu.A, GST-PDHK1 pull-down, HEK293T lysate. On the procedure: HEK293T cells, transfected with GST-PDHK1 construct, were lysed and incubated with Glutathione Sepharose 4B beads. The beads were washed and HEK293T whole cell lysate was added with/without 500 μM of Hu.A and the samples were analyzed by western blot analysis.

In data set [5] the test system is DLD-1 cells. Briefly: O2 consumption assay. The class given is cell-based, human. The note with it: serum-free medium, 6 h. On the procedure:
The O2 consumption rate was determined using the Oxygen Consumption Rate Assay Kit (Cayman Chemical, Ann Arbor, MI, USA) following the manufacturer’s protocol. The fluorescence of the oxygen probe was measured using the Spectramax M2 microplate reader at wavelengths of 380/650 nm.

The subject of a further data set is LLC cells. Briefly: MTT cell viability assay. In kind it is cell-based, murine. To be noted: 3 μM, 24 h, serum free medium. On the procedure: as §1
Supplementary materials Huzhangoside A Suppresses Tumor
Growth through Inhibition of Pyruvate
Dehydrogenase Kinase Activity
Choong-Hwan Kwak, Jung-Hee Lee, Eun-Yeong Kim, Chang Woo Han, Keuk-Jun Kim, Hanna Lee, MyoungLae Cho, Se Bok Jang, Cheorl-Ho Kim, Tae-Wook Chung and Ki-Tae Ha
Figure S1. Hu.A inhibited cell viability and phosphorylation of PDHA in LLC cells. (A) The LLC cells were treated with indicated concentrations of Hu.A in serum free medium for 24 h and MTT assay was performed. The data was indicated as mean ± SD. * p < 0.05 and *** p < 0.001 compared with the control. (B) In serum free condition, the LLC cells were treated with indicated concentrations of Hu.A for 4 h. The levels of phosphor-PDHA and total PDHA were analyzed by Western blotting assay. (C) Schematic diagram of the mechanisms of Hu.A-mediated apoptosis was shown. The red circle and white P indicated phosphates. […]

The next data set deals with LLC cell allograft. As to the kind of experiment: LLC tumor allograft in C57BL/6 mice. In kind it is in vivo. The protocol:
LLC cells (5 × 10^5 cells/100 μL PBS) were injected into the dorsal subcutaneous skin of C57BL/6 mice (n = 8 mice per group). The control (untreated) group and Hu.A-treated groups were administered 0 mg/kg and 0.1 mg/kg, 0.5 mg/kg, and 1 mg/kg of Hu.A in 100 μL PBS/20 g via intraperitoneal (i.p.) injection for 14 days, respectively. The mice were killed 14 days after inoculation of LLC cells and the tumors were seceded from the mice and analyzed. The volumes of LLC cell derived-tumors were calculated using the formula ((length × width^2)/2).
For immunohistochemical analysis, the tumor tissues were fixed with 3.7% formalin in PBS and embedded in paraffin. The paraffin sections were incubated with a primary antibody against the Ki-67, a cell proliferation marker, and visualized via Dako EnVision kit (Dako, Jena, Germany). The sections were counterstained with hematoxylin.

A further data set deals with HSC-2. Details: method as in PMID 19952458. To be noted: read-out: IC50 against human cancer cell line; cited from earlier work.
Another data set concerns HL-60. Details: method as in PMID 19952458. The note with it: read-out: IC50 against human cancer cell line; cited from earlier work.
Another data set has as its system tumor growth. To be noted: JX06 is ref 12; cited from earlier work.
Data set [6] addresses T1, PDHK1. The note with it: read-out: IC50 for inhibiting PDHK1 activity; cited from earlier work.
For data set [7], the target named is T1, PDHK1. The note with it: cited from earlier work.

Bounds are passed on as bounds.

Broadly, the IC50 is the concentration that gives 50% inhibition.

T1 sequence (Q15118 29-436): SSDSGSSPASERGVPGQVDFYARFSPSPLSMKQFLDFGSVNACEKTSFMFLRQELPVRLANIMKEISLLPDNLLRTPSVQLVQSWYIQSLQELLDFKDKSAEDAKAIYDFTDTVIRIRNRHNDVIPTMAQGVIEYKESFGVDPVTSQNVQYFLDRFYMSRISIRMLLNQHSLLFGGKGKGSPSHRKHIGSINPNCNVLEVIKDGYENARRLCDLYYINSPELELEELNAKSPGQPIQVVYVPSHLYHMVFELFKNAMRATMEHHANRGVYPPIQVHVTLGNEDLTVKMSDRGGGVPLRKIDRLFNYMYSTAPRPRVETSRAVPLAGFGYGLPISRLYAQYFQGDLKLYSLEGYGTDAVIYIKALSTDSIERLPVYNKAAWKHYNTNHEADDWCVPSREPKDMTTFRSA
T2 sequence (Q15118 29-436): as above
T3 sequence (Q15118 29-436): as above
T3 sequence (P10515 87-647 partner): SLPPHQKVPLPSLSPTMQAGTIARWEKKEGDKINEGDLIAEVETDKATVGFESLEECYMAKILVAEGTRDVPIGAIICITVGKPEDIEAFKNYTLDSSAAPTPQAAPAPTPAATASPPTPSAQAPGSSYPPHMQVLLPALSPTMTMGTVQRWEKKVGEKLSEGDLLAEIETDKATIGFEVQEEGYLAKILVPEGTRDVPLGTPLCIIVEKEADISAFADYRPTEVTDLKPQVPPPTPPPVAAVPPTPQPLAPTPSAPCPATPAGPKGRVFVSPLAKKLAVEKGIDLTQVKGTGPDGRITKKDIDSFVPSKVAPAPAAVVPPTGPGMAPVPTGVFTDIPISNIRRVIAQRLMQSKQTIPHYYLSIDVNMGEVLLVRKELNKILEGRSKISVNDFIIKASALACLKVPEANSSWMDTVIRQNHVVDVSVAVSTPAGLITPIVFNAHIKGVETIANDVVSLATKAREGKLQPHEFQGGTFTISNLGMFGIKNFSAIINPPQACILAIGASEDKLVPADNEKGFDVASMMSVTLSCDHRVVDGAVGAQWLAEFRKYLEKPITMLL

For `CC1OC(OC2C(OC3CCC4(C)C(CCC5(C)C4CC=C4C6CC(C)(C)CCC6(C(=O)O)CCC45C)C3(C)C)OCC(O)C2O)C(O)C(OC2OCC(O)C(O)C2O)C1O` (stereo not drawn) [Hu.A, Huzhangoside A], the IC50 in the data set with HSC-4 was 11.7 µM; in the data set on A549, 1.5 µM; in the data set with HSC-2, 5.7 µM; with HL-60, 2.3 µM. Besides, the Creatinine in [1] (0.1 mg/kg i.p.), in [1] (0.5 mg/kg i.p.) and in data set [1] (1 mg/kg i.p.) was under 0.17 mg/dL each time. In addition, the figures for the BUN in data set [1] (0.1 mg/kg i.p.), in [1] (0.5 mg/kg i.p.) and in data set [1] (1 mg/kg i.p.) were 8.8 ± 0.9 mg/dL, 8.9 ± 0.6 mg/dL and 8.4 ± 1.0 mg/dL, respectively. Moreover, the figures for the ALT in data set [1] (0.1 mg/kg i.p.), in [1] (0.5 mg/kg i.p.) and in data set [1] (1 mg/kg i.p.) were 16.7 ± 2.5 U/L, 19.2 ± 5.6 U/L and 19.6 ± 3.1 U/L, respectively. The AST in data set [1] (0.1 mg/kg i.p.) turned out to be 94.5 ± 41.0 U/L; in data set [1] (0.5 mg/kg i.p.), 87.5 ± 33.8 U/L; in data set [1] (1 mg/kg i.p.) it was 95.2 ± 43.1 U/L. For the same compound, the cytotoxic effect entry is “more than 80%” with MDA-MB-231 cells; “more than 80%” with DLD-1 cells [4] (3 μM, 24 h); “more than 80%” with HT-29 cells; “more than 80%” in the data set on Hep3B cells; “more than 80%” in the data set with LLC cells. Further, the “[α-32P]ATP-binding activity of PDHK1” value on PDHK1 [2] is “decreased”. The “secretory lactate levels in media” value with DLD-1 cells [3] is “reduced”. Moreover, the “kinase activity of GST-PDHK1” value on GST-PDHK1 is recorded as “significantly inhibited”. Besides, the “cytotoxic effect of Hu.A after MitoTEMPO pre-treatment” value in the data set with DLD-1 cells [4] (DLD-1, MitoTEMPO 50 μM 1 h pre-treatment, then 3 μM Hu.A 6 h, serum-free) was “significantly reduced”. Moreover, the “protein levels of PDHK isozymes (PDHK1-4)” value in the data set on PDHK1-4 is on record as “did not significantly change”. Moreover, the “binding of PDHK and PDC E2 subunit” value on PDHK and PDC E2 subunit is recorded as “did not significantly affect”. In addition, the O2 consumption rate result with DLD-1 cells [5] was “increased”. For the same compound, in the data set with LLC cell allograft (1 mg/kg, western blot), the “levels of cleaved forms of caspase-3, -9, and PARP in tumor tissues” value was “increased”. For the same compound, the “growth of the allograft LLC cells (tumor volume and weight)” value with LLC cell allograft (0.1, 0.5 and 1 mg/kg/day i.p., dose-dependent) is recorded as “significantly suppressed”. The “staining of Ki-67 in tumor tissues” value with LLC cell allograft (immunohistochemistry, Hu.A-treated mice) was “reduced”. Further, the “phosphor-PDHA levels in tumor tissues” value in the data set on LLC cell allograft (western blot, Hu.A-treated mice) is “markedly decreased”.
On to `S=C(SSC(=S)N1CCOCC1)N1CCOCC1` [JX06], for which, in the data set on tumor growth, the “concentration required for inhibition of tumor growth in in vivo experiments” value was 40 to 80 mg/kg. Besides, the IC50 on PDHK1 [6] is 0.049 µM. Also, on PDHK1 [7], the “concentration administered to suppress the intracellular PDHK1 activity” value was 10 µM.
For the compound `C[C@@H]1C[C@H]2O[C@@H]2/C=C\C=C\C(=O)Cc2c(Cl)c(O)cc(O)c2C(=O)O1` [radicicol], on PDHK1 [7], the “concentration administered to suppress the intracellular PDHK1 activity” value was 10 µM.
